Patent US20170183318A1, “AMIDE COMPOUNDS, METHODS FOR PREPARATION, AND USE THEREOF AS AGENTS FOR THE TREATMENT AND PREVENTION OF DISEASES CAUSED BY RNA- AND/OR DNA-CONTAINING VIRUSES, AND CONCOMITANT DISEASES” (OBSCHESTVO S OGRANICHENNOI OTVETSTVENNOSTIYU …, priority 2014, published 2017)
Read-outs that look alike come from different tables or passages of the source. Starred links: 1 amine or outer side, 2 acyl side, 3 side chain; linkers in the order of their positions; H or OH if unused. Residues, ends and D or L forms follow the SMILES beside them. Glutaryl = O=C(CCCC(=O)[*:2])[*:1]

Assays:
[1] = tested on: herpes simplex virus belonging to antigenic type 2; assay: Murine model of experimental herpetic meningoencephalitis (mortality); format: in vivo, white outbred mice; conditions: Mus musculus, po, 336 h
Procedure: In the study, herpes simplex virus belonging to antigenic type 2 was used. White outbred mice weighing 7-8 g were infected i/c (intracerebrally) in a volume of 0.05 ml/mouse comprising a dose of 10LD50. The infectious dose of the virus that caused 100% mortality in mice was 10LD50. Each experimental group comprised 20 mice. Intact animals served as control and were hold in a separate room under the same conditions as the experimental animals. The antiviral activity of the compounds of general formula I was studied by oral administration of the compounds to infected mice once daily at a dose of 30 mg/kg/mouse 24, 48, 72, 96, and 120 hours after infection of the animals with the virus. The mice of the control group were administered placebo (0.2 mL of physiological solution) under the same conditions. The animals were monitored for 14 days after infection by registration the mouse death in the groups.
Each animal was subjected to once-daily observation. The observation included the assessment of general behavior and body condition of animals. The animals were handled according to the International Standards.
The activity of the compounds was evaluated by comparing mortality rates in the groups of animals administered a preparation and placebo.

[2] = Rat model of nasopharyngitis induced by formalin (nasal mucosa changes, cell elements in nasal lavage); format: in vivo; conditions: Wistar rats, 18 mg/kg for 3 days; for Mucous membrane of nasal passages: Without changes (number of animals): number of animals out of n = 10, control 0 of 20; for Mucous membrane of nasal passages: Discharge mucus from the nasal passages (number of animals): number of animals out of n = 10, control 20 of 20
Procedure: Nasopharyngitis was induced by intranasal administration of formalin to each nasal passage of rats.
The administration of formalin to the nasal passages of rats leads to the dissemination of inflammation to adjacent tissues, resulting in a clinical pattern similar to the symptoms of nasopharyngitis in a human.
After an acclimatization period, the following groups were formed: • intact animals administered intragastrically a physiological solution in an amount of 0.2 ml, without induction of nasopharyngitis; • a control group consisted of animals administered intragastrically a physiological solution in an amount of 0.2 ml for 3 days after induction of nasopharyngitis; and • animals administered the studied compounds at a dose of 18 mg/kg for 3 days after induction of nasopharyngitis.
Clinical observation of each animal was performed every day at least twice daily.
The caused pathology was characterized by hyperplasia, increased number of caliciform cells, pronounced infiltration of mononuclear cells and leucocytes, and mucus hyperproduction by submucosal glands.
After euthanasia, the inflammation pattern in the nasal passages and throat was studied in each group of animals. The nasal passages were washed with 5 mL of physiological solution and the score of cell elements were counted in 1 μL.

[3] = tested on: Coxsackie A2 virus (strain HCXV A2); assay: Antiviral activity against Coxsackie virus in vivo (mortality and life expectancy of infected mice)
Procedure: In the study a trypsin-dependent strain HCXV A2 was used, previously adapted and causing death in mice from Coxsackie virus infection.
The experiment was carried out in white mice weighing 6 to 7 g. The animals were infected intramuscularly with a dose of 0.1 mL/mouse. The used infectious dose causing mortality in mice was 10LD50.
The ability of compounds to provide a therapeutic effect was determined by the mortality rate of HCXV A2 virus-infected mice in the experimental group relative to the group of untreated animals.
The studied compounds and placebo were administered orally according to the treatment regimen. Normal saline solution was administered to mice as placebo. Intact animals served as a negative control and were hold in a separate room under the same conditions as the experimental animals.
For the experiment, groups were formed with 14-15 animals each. Compounds were administered at a dose of 30 mg/kg of body weight. The studied compounds were administered orally once daily for 7 days (first administration was made 24 hours after infection). The animals were monitored for 15 days during which the animals were weighed and the mortality rate was registered every day.

[4] = tested on: human virus hRSV; assay: Antiviral activity against mouse-adapted RS virus (body weight; viral titer in lungs titrated in Hep-2 cells); format: in vivo, mice; conditions: for hRSV in the lungs of mice, Day 5, lg / hRSV in the lungs of mice, Day 7, lg: 10% lung suspension titrated in Hep-2 cells (TCID); for hRSV in the lungs of mice, Day 5, lg / Body weight of the mice on day 5 after infection with hRSV (M ± SD) / hRSV in the lungs of mice, Day 7, lg / Body weight of the mice on day 7 after infection with hRSV (M ± SD): compounds 30 mg/kg, Ribavirin 40 mg/kg; for Body weight of the mice on day 5 after infection with hRSV (M ± SD) / Body weight of the mice on day 7 after infection with hRSV (M ± SD): orally once daily for 5 days, n = 6; for log reduction at 30 mg/kg: human respiratory syncytial virus, HEp-2, po
Procedure: Antiviral effectiveness of the chemical compounds against RSV in an experimental murine model in vivo was determined for human virus hRSV that was previously adapted to the growth in mouse lungs. The animals were infected with the virus at a dose of 0.5 log TCID50 intranasally under brief ether anesthesia in a volume of 0.05 ml/mouse. The studied compounds were administered orally once daily for 5 days according to the treatment regimen at a dose of 30 mg/kg. The first administration was made 24 hours after infection. Normal saline solution was administered to mice as placebo. Intact animals served as a negative control and were hold in a separate room under the same conditions as the experimental animals. Each experimental group comprised 12 animals.
The antiviral activity of the studied compounds was determined by the efficiency in the prevention of weight loss and by suppression of the reproduction of hRSV in the mouse lungs by measuring a viral titer in the experimental groups relative to the control on days 5 and 7 after infection.
In addition, the therapeutic action of the compounds of general formula I was determined by their ability to suppress the reproduction of hRSV in the mouse lungs on days 5 and 7 after infection. The viral titer was determined by the titration of a 10% lung suspension in Hep-2 cell culture. The result was registered 2 days after the incubation at 37° C. by TCID.

[5] = tested on: human respiratory syncytial virus (strain A2); assay: Antiviral activity against RS virus in a murine model of suppressed immune system (lung edema); format: in vivo; conditions: Balb/c mice, cyclophosphan-suppressed, RS-virus pneumonia; 30 mg/kg once daily for 5 days; M ± SD, n = 5; scores from possible 4
Procedure: Antiviral activity of the chemical compounds against human respiratory syncytial virus (strain A2, an infectious titer of 5×10^6 TCID50/mL) was assessed in a Balb/c murine model of viral pneumonia. The virus was inoculated to animals intranasally in a volume of 50 μL under brief ether anesthesia. The immune response in animals to RS virus was suppressed by intraperitoneal administration of cyclophosphan at a dose of 100 mg/kg 5 days before infection. The studied compounds were administered according to the treatment regimen once daily at a dose of 30 mg/kg for 5 days, starting 24 hours after infection. The activity of the compounds was determined by a reduction in edema of the lung infected with respiratory syncytial virus, compared to the control, on day 5 after infection.

[6] = 120 h, read-out: Suppression of the reproduction of hRSV in the lungs of mice, Day 5, Δlg
[7] = 168 h, read-out: Suppression of the reproduction of hRSV in the lungs of mice, Day 7, Δlg

Row | SMILES | mortality at 30 mg/kg [1] [%] | Mucous membrane of nasal passages: Without changes (number of animals) [2] | Mucous membrane of nasal passages: Discharge mucus from the nasal passages (number of animals) [2] | inhibition in vivo at 30 mg/kg ([3]; Mus musculus, po, 168 h, 30 mg/kg orally once daily for 7 days, vs virus control, read-out: Protective index (%)) [%] | mortality at 30 mg/kg ([3]; Mus musculus, po, 360 h, read-out: Total mortality, %) [%] | Average life expectancy (days), Compared with control ([3]; difference vs virus control, 30 mg/kg orally once daily for 7 days) | Average life expectancy (days), Relative ([3]; mice infected with 10LD50 HCXV A2, 30 mg/kg orally once daily for 7 days) [days] | hRSV in the lungs of mice, Day 5, lg [4] [lg] | Body weight of the mice on day 5 after infection with hRSV (M ± SD) [4] | hRSV in the lungs of mice, Day 7, lg [4] [lg] | Body weight of the mice on day 7 after infection with hRSV (M ± SD) [4] | log reduction at 30 mg/kg [4, 6] | log reduction at 30 mg/kg [4, 7] | Degree of lung edema on day 5 after infection, score [5] [score]
1 | CC(NC(=O)C(Cc1cnc[nH]1)NC(=O)CCCC(=O)O)C(N)=O (stereo not drawn) [Compound 92] (Glutaryl-His-Ala-NH2; configuration not given here) | 25 | 6 | 4 | – | – | – | – | – | – | – | – | – | – | –
2 | NCCCC(=O)NCCCc1cccs1 [Compound 100] | 30 | 3 | 7 | – | – | – | – | – | – | – | – | – | – | –
3 | O=C(O)CCCC(=O)NCCc1cc[nH]n1 [Compound 15] | 30 | 7 | 3 | – | – | – | – | – | – | – | – | – | – | –
4 | CC(C)(CCC(=O)NCCc1cnc[nH]1)C(=O)O [Compound 44] | 40 | 4 | 6 | 55 | 28.6 | +20.1 days | 32.3 | – | – | – | – | – | – | –
5 | O=C(O)CCCC(=O)NCCc1cocn1 [Compound 124] | 40 | 7 | 3 | – | – | – | – | 2.46 ± 0.22 | 16.43 ± 0.26 | 0.83 ± 0.37 | 16.37 ± 0.43 | 2.14 ± 0.22 | 2.97 ± 0.37 | –
6 | O=C(O)CCCC(=O)NCCc1cc[nH]c1 [Compound 120] | – | – | – | – | – | – | – | 3.04 ± 0.47 | 16.12 ± 0.27 | 1.50 ± 0.25 | 17.22 ± 0.20 | 1.56 ± 0.47 | 2.05 ± 0.25 | 1.05 ± 0.14
7 | O=C(O)CCCC(=O)NCCc1cn[nH]n1 [Compound 126] | 40 | 4 | 6 | – | – | – | – | – | – | – | – | – | – | –
8 | O=C(O)CCCC(=O)NCCC1CCNCC1 [Compound 7] | 20 | 6 | 4 | – | – | – | – | – | 17.17 ± 0.26 | – | 18.53 ± 0.55 | – | – | –
9 | O=C(O)CCCC(=O)NCCC1CCNC1 (stereo not shown) [Compound 1] | – | – | – | – | – | – | – | 2.88 ± 0.59 | 16.43 ± 0.14 | 1.46 ± 0.17 | 17.98 ± 0.26 | 1.73 ± 0.59 | 2.34 ± 0.17 | 1.3 ± 0.27
10 | O=C(O)CCCC(=O)NCCc1cscn1 [Compound 121] | – | – | – | – | – | – | – | 3.08 ± 0.47 | 16.35 ± 0.20 | 1.50 ± 0.14 | 17.38 ± 0.29 | 1.52 ± 0.47 | 2.09 ± 0.22 | 1.30 ± 0.60
11 | O=C(O)CCCC(=O)NCCc1cnccn1 [Compound 131] | 45 | 5 | 5 | – | – | – | – | – | – | – | – | – | – | –
12 | O=C(O)CCCC(=O)NCCc1cnco1 [Compound 123] | – | – | – | – | – | – | – | 2.50 ± 0.43 | 15.87 ± 0.20 | 1.33 ± 0.19 | 17.55 ± 0.53 | 2.1 ± 0.43 | 2.62 ± 0.5 | 1.30 ± 0.17
